From ChEMBL document CHEMBL3124819, “2',4'-Difluoro-2'-methyl Substituted Nucleoside Derivatives as Inhibitors of HCV RNA Replication” (ACS Med Chem Lett, 2014)

Tests used:
[1] = Cytotoxicity against human HuH7 cells after 2 hrs by WST-1 assay relative to control; type: cell-based, Huh-7
Hepatitis C virus = assay: Antiviral activity against HCV genotype 1b infected in human HuH7 cells assessed as inhibition of viral RNA replication after 3 days by luciferase reporter gene assay; type: functional, organism-based, Hepacivirus hominis; details: Huh-7, 72 h

| Structure (SMILES) | CC50 at 2 h [1] [µM] | IC50 (Hepatitis C virus) [µM] |
| --- | --- | --- |
| CCC(=O)O[C@H]1[C@@](C)(F)[C@H](n2ccc(=O)[nH]c2=O)O[C@]1(F)COP(=O)(N[C@@H](C)C(=O)OC(C)C)Oc1cccc2ccccc12 (stereo partly specified) | 67.8 | 0.151 |
| CC(C)OC(=O)[C@H](C)NP(=O)(OC[C@@]1(F)O[C@@H](n2ccc(=O)[nH]c2=O)[C@](C)(F)[C@@H]1O)Oc1ccc2ccccc2c1 (stereo partly specified) | > 100 |  |
| CC(C)OC(=O)[C@H](C)NP(=O)(OC[C@@]1(F)O[C@@H](n2ccc(=O)[nH]c2=O)[C@](C)(F)[C@@H]1O)Oc1cccc2ccccc12 (stereo partly specified) | > 100 | 0.115 |
| CC(C)OC(=O)[C@H](C)NP(=O)(OC[C@@]1(F)O[C@@H](n2ccc(=O)[nH]c2=O)[C@](C)(F)[C@@H]1O)Oc1ccccc1 (stereo partly specified) | > 100 |  |
